Values of other authors, collected in patent publication US20070294068A1, “LINE-WALKING RECURSIVE PARTITIONING METHOD FOR EVALUATING MOLECULAR INTERACTIONS AND QUESTIONS RELATING TO TEST OBJECTS” (priority 2006, published 2007).

Tested on: 2C9
Conditions: literature reports

Structure (SMILES) | reported inhibition of 2C9
CCc1ccc(CCOc2ccc(CC3SC(=O)NC3=O)cc2)nc1 (centres unmarked) [pioglitazone] | weak inhibitor of the *2 allylic variant not the native enzyme
Nc1ccc(S(=O)(=O)Nc2ncccn2)cc1 [sulfadiazine] | only a weak inhibitor
